The text below walks through data of US20250367166A1, “NEXT GENERATION DIPROVOCIMS THAT ACTIVATE THE INNATE AND ADAPTIVE IMMUNE RESPONSE” (The Scripps Research Institute, priority 2022, published 2025).

Assay [1] concerns the target TLR1/TLR2 (Homo sapiens, UniProt O60603+Q15399). The assay is described as follows: TNF-α release from PMA-differentiated human THP-1 cells (ELISA).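 For all read-outs here: cells exposed to graded compound concentrations for 4 h, TNF-α quantified in supernatant, LPS as positive and DMSO as negative control, values are duplicate means.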 Conditions: for Emax: THP-1, 4 h, read-out: Efficacy (magnitude) of response versus diprovocim-1 (100%), THP-1; for EC50: read-out: EC50 (nM) (THP-1): EC50 TNF-α release from human THP-1 cells.
The target in assay [2] is TLR1/TLR2 (Mus musculus, UniProt Q9EPQ1+Q9QUN7). The assay is described as follows: TNF-α release from thioglycolate-elicited mouse peritoneal macrophages (ELISA). As to conditions: for Emax: 4 h, read-out: Efficacy (magnitude) of response versus diprovocim-1 (100%), mouse macrophages; for EC50: read-out: EC50 (nM) (mouse): EC50 TNF-α release from mouse macrophages.
Chain of TLR1/TLR2 (Mus musculus, UniProt Q9EPQ1+Q9QUN7) (Q9EPQ1 26-795): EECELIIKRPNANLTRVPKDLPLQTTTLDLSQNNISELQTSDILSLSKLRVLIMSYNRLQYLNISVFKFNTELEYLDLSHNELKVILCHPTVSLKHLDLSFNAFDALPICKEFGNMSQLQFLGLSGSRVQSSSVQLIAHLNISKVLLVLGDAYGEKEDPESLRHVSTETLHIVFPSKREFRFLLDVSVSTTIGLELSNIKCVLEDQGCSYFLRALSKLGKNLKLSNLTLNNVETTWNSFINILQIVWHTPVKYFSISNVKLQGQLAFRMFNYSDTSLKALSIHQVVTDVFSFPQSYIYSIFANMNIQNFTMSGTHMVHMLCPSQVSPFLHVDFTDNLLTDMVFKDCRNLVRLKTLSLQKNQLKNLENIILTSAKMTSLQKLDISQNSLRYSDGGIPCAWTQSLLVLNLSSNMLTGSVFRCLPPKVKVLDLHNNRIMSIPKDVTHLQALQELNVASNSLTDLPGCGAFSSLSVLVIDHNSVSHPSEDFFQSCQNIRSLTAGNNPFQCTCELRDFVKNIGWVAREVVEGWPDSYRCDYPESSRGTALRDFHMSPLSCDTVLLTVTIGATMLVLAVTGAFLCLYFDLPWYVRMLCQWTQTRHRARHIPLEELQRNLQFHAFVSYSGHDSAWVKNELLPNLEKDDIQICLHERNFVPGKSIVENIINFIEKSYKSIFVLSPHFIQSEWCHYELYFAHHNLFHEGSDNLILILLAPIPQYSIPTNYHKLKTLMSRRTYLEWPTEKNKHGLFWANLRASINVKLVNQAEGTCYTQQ
Chain of TLR1/TLR2 (Mus musculus, UniProt Q9EPQ1+Q9QUN7) (Q9QUN7 25-784): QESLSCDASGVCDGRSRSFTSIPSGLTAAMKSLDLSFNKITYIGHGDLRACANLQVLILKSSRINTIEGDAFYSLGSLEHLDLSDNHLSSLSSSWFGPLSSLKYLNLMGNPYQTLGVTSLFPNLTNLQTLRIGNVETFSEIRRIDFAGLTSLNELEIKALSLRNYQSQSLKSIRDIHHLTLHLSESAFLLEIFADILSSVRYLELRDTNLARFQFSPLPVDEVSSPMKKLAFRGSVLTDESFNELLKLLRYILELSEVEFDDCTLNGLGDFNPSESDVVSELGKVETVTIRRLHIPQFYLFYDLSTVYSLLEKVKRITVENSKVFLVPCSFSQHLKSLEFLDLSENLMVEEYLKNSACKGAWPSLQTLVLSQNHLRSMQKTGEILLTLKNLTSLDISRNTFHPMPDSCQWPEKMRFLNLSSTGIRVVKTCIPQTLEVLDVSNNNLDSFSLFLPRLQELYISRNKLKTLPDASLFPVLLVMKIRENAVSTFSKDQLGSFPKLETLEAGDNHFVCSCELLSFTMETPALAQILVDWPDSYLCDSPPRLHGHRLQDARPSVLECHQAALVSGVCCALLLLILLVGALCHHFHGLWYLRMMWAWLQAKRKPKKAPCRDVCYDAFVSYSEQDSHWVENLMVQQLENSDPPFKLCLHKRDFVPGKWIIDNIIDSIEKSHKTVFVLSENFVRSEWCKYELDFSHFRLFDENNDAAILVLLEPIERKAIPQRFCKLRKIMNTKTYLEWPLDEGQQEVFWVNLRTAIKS

Where two headings read alike, the source gives them in different places.

Chain of TLR1/TLR2 (Homo sapiens, UniProt O60603+Q15399) (Q15399 25-786): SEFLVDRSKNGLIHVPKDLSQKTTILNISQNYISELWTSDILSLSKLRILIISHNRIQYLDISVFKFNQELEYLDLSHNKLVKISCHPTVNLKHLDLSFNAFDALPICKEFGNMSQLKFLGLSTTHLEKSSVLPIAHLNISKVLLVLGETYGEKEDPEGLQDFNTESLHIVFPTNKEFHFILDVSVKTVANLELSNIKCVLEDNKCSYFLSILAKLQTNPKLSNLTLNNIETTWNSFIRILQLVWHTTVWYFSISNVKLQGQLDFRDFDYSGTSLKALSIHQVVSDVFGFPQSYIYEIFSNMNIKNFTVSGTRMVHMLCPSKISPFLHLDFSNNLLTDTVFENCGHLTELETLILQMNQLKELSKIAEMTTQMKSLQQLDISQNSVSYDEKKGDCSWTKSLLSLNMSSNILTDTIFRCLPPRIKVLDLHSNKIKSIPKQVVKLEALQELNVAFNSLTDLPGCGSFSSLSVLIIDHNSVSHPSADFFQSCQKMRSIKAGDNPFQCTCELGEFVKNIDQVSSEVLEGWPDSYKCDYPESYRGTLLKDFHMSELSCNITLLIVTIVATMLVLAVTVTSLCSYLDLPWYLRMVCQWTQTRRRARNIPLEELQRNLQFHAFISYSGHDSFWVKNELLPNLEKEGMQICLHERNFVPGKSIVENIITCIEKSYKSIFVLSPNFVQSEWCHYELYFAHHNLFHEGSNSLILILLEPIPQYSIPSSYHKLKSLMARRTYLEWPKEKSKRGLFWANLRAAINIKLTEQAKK
Chain of TLR1/TLR2 (Homo sapiens, UniProt O60603+Q15399) (O60603 21-784): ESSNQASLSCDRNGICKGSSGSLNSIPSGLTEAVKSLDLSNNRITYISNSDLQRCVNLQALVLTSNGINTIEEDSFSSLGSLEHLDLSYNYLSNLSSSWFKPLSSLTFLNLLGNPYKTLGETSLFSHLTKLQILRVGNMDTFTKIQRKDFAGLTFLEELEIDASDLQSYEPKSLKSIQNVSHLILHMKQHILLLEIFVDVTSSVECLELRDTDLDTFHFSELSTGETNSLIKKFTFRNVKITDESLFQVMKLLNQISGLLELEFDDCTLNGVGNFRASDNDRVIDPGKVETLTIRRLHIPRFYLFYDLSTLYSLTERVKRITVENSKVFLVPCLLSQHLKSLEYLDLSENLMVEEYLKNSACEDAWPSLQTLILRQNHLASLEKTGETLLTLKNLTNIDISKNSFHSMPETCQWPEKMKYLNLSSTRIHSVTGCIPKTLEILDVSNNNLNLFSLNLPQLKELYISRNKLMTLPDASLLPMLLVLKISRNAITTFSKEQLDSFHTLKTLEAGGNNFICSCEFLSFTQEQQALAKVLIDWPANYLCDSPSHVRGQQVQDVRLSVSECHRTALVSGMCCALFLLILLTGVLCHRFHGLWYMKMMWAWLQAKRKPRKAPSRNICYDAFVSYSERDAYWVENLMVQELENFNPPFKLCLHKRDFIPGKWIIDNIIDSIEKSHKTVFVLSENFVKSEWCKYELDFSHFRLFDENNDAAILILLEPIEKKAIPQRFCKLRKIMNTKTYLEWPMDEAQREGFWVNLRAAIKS

With `CC(C)(C)OC(=O)NNC(=O)OCCCCCCCCCCCCNC(=O)[C@@H]1CN(C(=O)c2ccc(C(=O)N3C[C@@H](C(=O)N[C@H]4C[C@@H]4c4ccccc4)[C@H](C(=O)N[C@H]4C[C@@H]4c4ccccc4)C3)cc2)C[C@H]1C(=O)N[C@H]1C[C@@H]1c1ccccc1` [Compound 71, 1-(12-((3S,4S)-1-(4-((3S,4S)-3,4-Bis(((1S,2R)-2-phenylcyclopropyl)carbamoyl)pyrrolidine-1-carbonyl)-benzoyl)-4-(((1S,2R)-2-phenylcyclopropyl)carbamoyl)-pyrrolidine-3-carboxamido)-dodecyl) 2-tert-butyl hydrazine-1,2-dicarboxylate], the Emax is 100% at TLR1/TLR2 [1] and 220% on TLR1/TLR2 [2]. The EC50 on TLR1/TLR2 [1] (Table 5) amounted to 5 nM; at TLR1/TLR2 [2] (Table 5), 25 nM.

In the case of `CC(C)(C)OC(=O)NCC(=O)NCC(=O)OCCCCCCCCCCCCNC(=O)[C@@H]1CN(C(=O)c2ccc(C(=O)N3C[C@@H](C(=O)N[C@H]4C[C@@H]4c4ccccc4)[C@H](C(=O)N[C@H]4C[C@@H]4c4ccccc4)C3)cc2)C[C@H]1C(=O)N[C@H]1C[C@@H]1c1ccccc1` [Compound 72, 12-((3S,4S)-1-(4-((3S,4S)-3,4-Bis(((1S,2R)-2-phenyl-cyclopropyl)carbamoyl)pyrrolidine-1-carbonyl)benzoyl)-4-(((1S,2R)-2-phenylcyclopropyl)carbamoyl)pyrrolidine-3-carboxamido)-dodecyl 2-(2-((tert-butoxycarbonyl)amino)acetamido)acetate], the Emax on TLR1/TLR2 [1] and on TLR1/TLR2 [2] was 110% each time. Moreover, the EC50 on TLR1/TLR2 [1] (Table 5) was 0.52 nM; at TLR1/TLR2 [2] (Table 5) it was 2.5 nM.

Regarding `CC(C)(C)OC(=O)Nc1ccc(C(=O)OCCCCCCCCCCCCNC(=O)[C@@H]2CN(C(=O)c3ccc(C(=O)N4C[C@@H](C(=O)N[C@H]5C[C@@H]5c5ccccc5)[C@H](C(=O)N[C@H]5C[C@@H]5c5ccccc5)C4)cc3)C[C@H]2C(=O)N[C@H]2C[C@@H]2c2ccccc2)cc1` [Compound 73, 12-((3S,4S)-1-(4-((3S,4S)-3,4-Bis(((1S,2R)-2-phenyl-cyclopropyl)carbamoyl)pyrrolidine-1-carbonyl)-benzoyl)-4-(((1S,2R)-2-phenylcyclopropyl)carbamoyl)-pyrrolidine-3-carboxamido)-dodecyl 4-((tert-butoxycarbonyl)amino)benzoate], the results for the Emax on TLR1/TLR2 [1] and on TLR1/TLR2 [2] were 90% and 540%, respectively. The results for the EC50 on TLR1/TLR2 [1] (Table 6) and on TLR1/TLR2 [2] (Table 6) were 0.57 nM and 30 nM, respectively.

Consider `Nc1ccc(C(=O)OCCCCCCCCCCCCNC(=O)[C@@H]2CN(C(=O)c3ccc(C(=O)N4C[C@@H](C(=O)N[C@H]5C[C@@H]5c5ccccc5)[C@H](C(=O)N[C@H]5C[C@@H]5c5ccccc5)C4)cc3)C[C@H]2C(=O)N[C@H]2C[C@@H]2c2ccccc2)cc1` [Compound 74, 12-((3S,4S)-1-(4-((3S,4S)-3,4-Bis(((1S,2R)-2-phenyl-cyclopropyl)carbamoyl)pyrrolidine-1-carbonyl)benzoyl)-4-(((1S,2R)-2-phenylcyclopropyl)carbamoyl)-pyrrolidine-3-carboxamido)-dodecyl 4-aminobenzoate], for which the Emax is 100% at TLR1/TLR2 [1] and 300% on TLR1/TLR2 [2]. Further, the EC50 came to 0.05 nM on TLR1/TLR2 [1] (Table 6) and 0.67 nM on TLR1/TLR2 [2] (Table 6).

In the case of `O=C(OCCCCCCCCCCCCNC(=O)[C@@H]1CN(C(=O)c2ccc(C(=O)N3C[C@@H](C(=O)N[C@H]4C[C@@H]4c4ccccc4)[C@H](C(=O)N[C@H]4C[C@@H]4c4ccccc4)C3)cc2)C[C@H]1C(=O)N[C@H]1C[C@@H]1c1ccccc1)c1ccc(O)cc1` [Compound 75, 12-((3S,4S)-1-(4-((3S,4S)-3,4-Bis(((1S,2R)-2-phenylcyclopropyl)carbamoyl)pyrrolidine-1-carbonyl)benzoyl)-4-(((1S,2R)-2-phenyl-cyclopropyl)carbamoyl)pyrrolidine-3-carboxamido)-dodecyl 4-hydroxybenzoate], the Emax on TLR1/TLR2 [1] is 100%; at TLR1/TLR2 [2] it was 540%. Besides, the EC50 turned out to be 1.7 nM at TLR1/TLR2 [1] (Table 6) and 50 nM on TLR1/TLR2 [2] (Table 6).
